Source: patent publication US20240000767A1, “COMBINATION OF AN ALPHA2-ADRENOCEPTOR SUBTYPE C (ALPHA-2C) ANTAGONIST WITH A TASK1/3 CHANNEL BLOCKER FOR THE TREATMENT OF SLEEP APNEA” (Bayer Aktiengesellschaft, priority 2020, published 2024)

Target: human ADRA2C receptor (Homo sapiens (Human), UniProt P18825)
Assay: In vitro activity assay to determine the inhibition of recombinant ADRA2C (CHO-K1 cells, aequorin bioluminescence)
Type: cell-based
Conditions: inhibition of noradrenaline-induced bioluminescence signal; some mean values from multiple determinations; read-out: ARα2C IC50
Experimental: B-2. In Vitro Activity Assay to Determine the Inhibition of Recombinant ADRA2C
The human ADRA2C receptor belongs to the G protein(guanine-dependent protein)-coupled receptors, the main function of which is the transduction of signals into the interior of the cell.
The investigations of the inhibition of the recombinant human ADRA2C receptors were carried out with stabily transfected CHO-K1 cells coexpressing the Gaq protein and the calcium-sensitive photoprotein aequorin. In this recombinant system, binding of the agonists noradrenaline to the ADRA2C receptor leads, after activation of a signal cascade, to calcium release from intracellular stores, which is detected by the intracellular calcium sensor aequorin as a bioluminescent signal. The method is described in detail in the reference below. [Wunder F., Kalthof B., Muller T., Hueser J. Functional Cell-Based Assays in Microliter Volumes for Ultra-High Throughput Screening. Combinatorial Chemistry & High Throughput Screening, Volume 11, Number 7, 2008, pp. 495-504(10). doi.org/10.2174/138620708785204054]
The activity of the test substances was determined via their ability to inhibit the agonist-induced increase of the bioluminescence signal. The concentration which can block half of this signal increase is referred to as IC50. The IC50 value is calculated using the 4 parameter logistic function (Hill function):
Top=upper threshold, Bottom=lower threshold, Slope=slope, IC50=turning point

human ADRA2C receptor, sequence (P18825 whole entry): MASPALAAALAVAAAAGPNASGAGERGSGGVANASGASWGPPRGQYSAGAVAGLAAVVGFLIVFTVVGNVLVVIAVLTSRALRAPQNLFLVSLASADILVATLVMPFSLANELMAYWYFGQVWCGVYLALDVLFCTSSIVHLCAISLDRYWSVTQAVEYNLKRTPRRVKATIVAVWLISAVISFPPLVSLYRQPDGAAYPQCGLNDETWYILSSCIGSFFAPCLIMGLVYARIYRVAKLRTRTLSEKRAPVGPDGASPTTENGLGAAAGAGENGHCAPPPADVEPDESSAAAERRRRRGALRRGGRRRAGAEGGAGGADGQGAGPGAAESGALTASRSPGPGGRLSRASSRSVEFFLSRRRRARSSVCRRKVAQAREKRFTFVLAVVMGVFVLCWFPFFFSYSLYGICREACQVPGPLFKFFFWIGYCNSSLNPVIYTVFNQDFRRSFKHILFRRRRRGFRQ

| SMILES | IC50 |
| --- | --- |
| O=C(NCc1ncc(F)cc1F)c1cnc(N2CCC(N3CCCC(COCC4CC4)C3)CC2)s1 (racemic) [Example 69, rac-2-{3-[(Cyclopropylmethoxy)methyl][1,4′-bipiperidin]-1′-yl}-N-[(3,5-difluoropyridin-2-yl)methyl]-1,3-thiazole-5-carboxamide] | 5.5 nM |
| CCOC1CCCN(C2CCN(c3ncc(C(=O)NCc4ncc(F)cc4F)s3)CC2)C1 (racemic) [Example 70, rac-N-[(3,5-Difluoropyridin-2-yl)methyl]-2-[3-ethoxy[1,4′-bipiperidin]-1′-yl]-1,3-thiazole-5-carboxamide] | 22 nM |
| O=C(NCc1ncc(F)cc1F)c1cnc(N2CCC(N3CCCC(COCC4CC(F)(F)C4)C3)CC2)s1 (racemic) [Example 75, rac-2-(3-{[(3,3-Difluorocyclobutyl)methoxy]methyl}[1,4′-bipiperidin]-1′-yl)-N-[(3,5-difluoropyridin-2-yl)methyl]-1,3-thiazole-5-carboxamide] | 345 nM |
| O=C(NCc1ncc(F)cc1F)c1cnc(N2CCC(N3CCCC(OCC(F)(F)F)C3)CC2)s1 (racemic) [Example 77, rac-N-[(3,5-Difluoropyridin-2-yl)methyl]-2-[3-(2,2,2-trifluoroethoxy)[1,4′-bipiperidin]-1′-yl]-1,3-thiazole-5-carboxamide] | 640 nM |
| CC(C)C1CCCN(C2CCN(c3ncc(C(=O)NCc4ncc(F)cc4F)s3)CC2)C1 (racemic) [Example 103, rac-N-[(3,5-Difluoropyridin-2-yl)methyl]-2-(3-isopropyl[1,4′-bipiperidin]-1′-yl)-1,3-thiazole-5-carboxamide] | 0.83 nM |
| O=C(NCc1ncc(F)cc1F)c1cnc(N2CCC(N3CCCC(OC4CCC4)C3)CC2)s1 (racemic) [Example 109, rac-2-[3-(Cyclobutyloxy)[1,4′-bipiperidin]-1′-yl]-N-[(3,5-difluoropyridin-2-yl)methyl]-1,3-thiazole-5-carboxamide] | 0.85 nM |
| O=C(NCc1ncc(F)cc1F)c1cnc(N2CCC(N3CCCC(OC4CC(F)(F)C4)C3)CC2)s1 (racemic) [Example 110, rac-2-{3-[(3,3-Difluorocyclobutyl)oxy][1,4′-bipiperidin]-1′-yl}-N-[(3,5-difluoropyridin-2-yl)methyl]-1,3-thiazole-5-carboxamide] | 1.5 nM |
| CCCC1CCCN(C2CCN(c3ncc(C(=O)NCc4ncc(F)cc4F)s3)CC2)C1 (racemic) [Example 121, rac-N-[(3,5-Difluoropyridin-2-yl)methyl]-2-(3-propyl[1,4′-bipiperidin]-1′-yl)-1,3-thiazole-5-carboxamide] | 0.65 nM |
| O=C(NCc1ncc(F)cc1F)c1cnc(N2CCC(N3CCCC(CCF)C3)CC2)s1 (racemic) [Example 127, rac-Formic acid N-[(3,5-difluoropyridin-2-yl)methyl]-2-[3-(2-fluoroethyl)[1,4′-bipiperidin]-1′-yl]-1,3-thiazole-5-carboxamide] | 8.4 nM |
| O=C(NCc1ncc(F)cc1F)c1cnc(N2CCC(N3CCCC(c4ccccc4)C3)CC2)s1 (racemic) [Example 133, rac-N-[(3,5-Difluoropyridin-2-yl)methyl]-2-(3-phenyl[1,4′-bipiperidin]-1′-yl)-1,3-thiazole-5-carboxamide] | 0.95 nM |
| CC(NC(=O)c1cnc(N2CCC(N3CCC[C@@H](C)C3)CC2)s1)c1cc(F)ccc1F (single isomer, unassigned) [Example 46] | 8.3 nM |
| CC(NC(=O)c1cnc(N2CCC(N3CCC[C@@H](C)C3)CC2)s1)c1cc(F)ccc1F (single isomer, unassigned) [Example 47] | 25 nM |
| C[C@@H]1CCCN(C2CCN(c3ncc(C(=O)NCc4ncc(F)cc4F)s3)CC2F)C1 (single isomer, unassigned) [Example 51] | 150 nM |
| C[C@@H]1CCCN(C2CCN(c3ncc(C(=O)NCc4ncc(F)cc4F)s3)CC2F)C1 (single isomer, unassigned) [Example 52] | 6.7 nM |
| COCC1CCCN(C2CCN(c3ncc(C(=O)NCc4ncc(F)cc4F)s3)CC2)C1 (single isomer, unassigned) [Example 99, ent-N-[(3,5-Difluoropyridin-2-yl)methyl]-2-[3-(methoxymethyl) [1,4′-bipiperidin]-1′-yl]-1,3-thiazole-5-carboxamide] | 590 nM |
| CC1CCCN(C2CCN(c3ncc(C(=O)NCc4ncc(F)cc4F)s3)CC2)CC1 (single isomer, unassigned) [Example 104, ent-N-[(3,5-Difluoropyridin-2-yl)methyl]-2-[4-(4-methylazepan-1-yl)piperidin-1-yl]-1,3-thiazole-5-carboxamide] | 10 nM |
| CC1CCCN(C2CCN(c3ncc(C(=O)NCc4ncc(F)cc4F)s3)CC2)CC1 (single isomer, unassigned) [Example 105, ent-N-[(3,5-Difluoropyridin-2-yl)methyl]-2-[4-(4-methylazepan-1-yl)piperidin-1-yl]-1,3-thiazole-5-carboxamide] | 4.3 nM |
| O=C(NCc1ncc(F)cc1F)c1cnc(N2CCC(N3CCCC(COCC(F)(F)F)C3)CC2)s1 (single isomer, unassigned) [Example 106, ent-N-[(3,5-Difluoropyridin-2-yl)methyl]-2-{3-[(2,2,2-trifluoroethoxy)methyl][1,4′-bipiperidin]-1′-yl}-1,3-thiazole-5-carboxamide] | 0.5 nM |
| O=C(NCc1ncc(F)cc1F)c1cnc(N2CCC(N3CCCC(COCC(F)(F)F)C3)CC2)s1 (single isomer, unassigned) [Example 107, ent-N-[(3,5-Difluoropyridin-2-yl)methyl]-2-{3-[(2,2,2-trifluoroethoxy)methyl][1,4′-bipiperidin]-1′-yl}-1,3-thiazole-5-carboxamide] | 37 nM |
| CCOC1CCCN(C2CCN(c3ncc(C(=O)NCc4ncc(F)cc4F)s3)CC2)C1 (single isomer, unassigned) [Example 123, ent-N-[(3,5-Difluoropyridin-2-yl)methyl]-2-(3-ethoxy[1,4′-bipiperidin]-1′-yl)-1,3-thiazole-5-carboxamide] | 260 nM |
| CCOC1CCCN(C2CCN(c3ncc(C(=O)NCc4ncc(F)cc4F)s3)CC2)C1 (single isomer, unassigned) [Example 124, ent-N-[(3,5-Difluoropyridin-2-yl)methyl]-2-(3-ethoxy[1,4′-bipiperidin]-1′-yl)-1,3-thiazole-5-carboxamide] | 2.9 nM |
| O=C(NCc1ncc(F)cc1F)c1cnc(N2CCC(N3CCCC(COCC4CC4)C3)CC2)s1 (single isomer, unassigned; ent-2) [Example 115, ent-2-{3-[(Cyclopropylmethoxy)methyl][1,4′-bipiperidin]-1′-yl}-N-[(3,5-difluoropyridin-2-yl)methyl]-1,3-thiazole-5-carboxamide] | 0.61 nM |
| O=C(NCc1ncc(F)cc1F)c1cnc(N2CCC(N3CCCC(COCC4CC4)C3)CC2)s1 (single isomer, unassigned; ent-2) [Example 116, ent-2-{3-[(Cyclopropylmethoxy)methyl][1,4′-bipiperidin]-1′-yl}-N-[(3,5-difluoropyridin-2-yl)methyl]-1,3-thiazole-5-carboxamide] | 11 nM |
| O=C(NCc1ncc(F)cc1F)c1cnc(N2CCC(N3CCCC4(C3)CC4(F)F)CC2)s1 (single isomer, unassigned; ent-2) [Example 131, ent-2-[4-(1,1-Difluoro-5-azaspiro[2.5]octan-5-yl)piperidin-1-yl]-N-[(3,5-difluoropyridin-2-yl)methyl]-1,3-thiazole-5-carboxamide] | 1.9 nM |
| O=C(NCc1ncc(F)cc1F)c1cnc(N2CCC(N3CCCC4(C3)CC4(F)F)CC2)s1 (single isomer, unassigned; ent-2) [Example 132, ent-2-[4-(1,1-Difluoro-5-azaspiro[2.5]octan-5-yl)piperidin-1-yl]-N-[(3,5-difluoropyridin-2-yl)methyl]-1,3-thiazole-5-carboxamide (enantiomer 2)] | 0.71 nM |
| O=C(NCc1ncc(F)cc1F)c1cnc(N2CCC(N3CCc4ccccc4C3)CC2)s1 [Example 2, N-[(3,5-Difluoropyridin-2-yl)methyl]-2-[4-(3,4-dihydroisoquinolin-2(1H)-yl)piperidin-1-yl]-1,3-thiazole-5-carboxamide] | 5.2 nM |
| Cc1nc(N2CCC(N3CCC[C@@H](C)C3)CC2)sc1C(=O)NCc1ncc(F)cc1F [Example 8, N-[(3,5-difluoropyridin-2-yl)methyl]-4-methyl-2-[(3R)-3-methyl[1,4′-bipiperidin]-1′-yl]-1,3-thiazole-5-carboxamide] | 591 nM |
| Cc1sc(N2CCC(N3CCC[C@@H](C)C3)CC2)nc1C(=O)NCc1ncc(F)cc1F [Example 9, N-[(3,5-difluoropyridin-2-yl)methyl]-5-methyl-2-[(3R)-3-methyl[1,4′-bipiperidin]-1′-yl]-1,3-thiazole-4-carboxamide] | 170 nM |
| C[C@@H]1CCCN(C2CCN(c3nc(C(=O)NCc4ncc(F)cc4F)cs3)CC2)C1 [Example 10, N-[(3,5-difluoropyridin-2-yl)methyl]-2-[(3R)-3-methyl[1,4′-bipiperidin]-1′-yl]-1,3-thiazole-4-carboxamide] | 21.4 nM |
